Experiments:
Type in all cases: ADME
[1] = molecular target: T1, ATP-binding cassette sub-family C member 4 (Homo sapiens, UniProt O15439); test: Substrates of transporters of clinical importance in the absorption and disposition of drugs, MRP4
T1 sequence (O15439 whole entry): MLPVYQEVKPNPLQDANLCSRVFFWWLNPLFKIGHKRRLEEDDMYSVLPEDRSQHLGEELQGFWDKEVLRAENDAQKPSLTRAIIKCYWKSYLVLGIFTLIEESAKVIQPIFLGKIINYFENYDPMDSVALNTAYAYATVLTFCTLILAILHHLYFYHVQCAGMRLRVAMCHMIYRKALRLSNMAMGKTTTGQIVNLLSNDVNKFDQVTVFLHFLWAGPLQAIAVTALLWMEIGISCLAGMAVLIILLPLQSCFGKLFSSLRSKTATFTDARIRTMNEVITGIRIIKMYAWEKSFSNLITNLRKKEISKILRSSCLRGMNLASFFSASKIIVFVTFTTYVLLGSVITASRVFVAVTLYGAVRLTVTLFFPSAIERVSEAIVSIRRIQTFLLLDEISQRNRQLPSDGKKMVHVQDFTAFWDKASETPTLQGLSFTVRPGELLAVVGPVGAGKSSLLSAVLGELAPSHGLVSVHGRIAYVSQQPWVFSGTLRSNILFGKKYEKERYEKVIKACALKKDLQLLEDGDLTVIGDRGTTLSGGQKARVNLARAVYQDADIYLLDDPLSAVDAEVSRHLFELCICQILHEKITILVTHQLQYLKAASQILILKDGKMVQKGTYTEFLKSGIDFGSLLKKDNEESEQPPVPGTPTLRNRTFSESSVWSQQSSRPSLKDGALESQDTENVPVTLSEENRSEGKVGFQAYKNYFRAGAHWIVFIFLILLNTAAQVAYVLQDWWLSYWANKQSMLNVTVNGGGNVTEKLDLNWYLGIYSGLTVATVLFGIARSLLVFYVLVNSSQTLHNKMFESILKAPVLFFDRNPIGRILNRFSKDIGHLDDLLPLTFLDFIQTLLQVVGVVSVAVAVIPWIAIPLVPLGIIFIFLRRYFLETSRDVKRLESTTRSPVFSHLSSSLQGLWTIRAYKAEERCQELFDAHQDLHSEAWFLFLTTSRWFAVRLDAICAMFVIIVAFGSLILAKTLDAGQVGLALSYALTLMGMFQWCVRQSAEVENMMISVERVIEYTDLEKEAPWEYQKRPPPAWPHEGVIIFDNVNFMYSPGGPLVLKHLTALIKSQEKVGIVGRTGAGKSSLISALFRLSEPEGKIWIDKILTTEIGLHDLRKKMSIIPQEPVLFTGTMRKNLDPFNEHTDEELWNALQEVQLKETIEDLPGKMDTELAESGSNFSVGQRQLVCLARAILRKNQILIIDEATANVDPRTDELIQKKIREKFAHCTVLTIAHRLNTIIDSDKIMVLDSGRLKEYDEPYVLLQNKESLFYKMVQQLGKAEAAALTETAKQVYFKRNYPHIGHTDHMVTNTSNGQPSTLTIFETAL

[2] = molecular target: T2, Solute carrier family 22 member 6 (Homo sapiens, UniProt Q4U2R8); test: Substrates of transporters of clinical importance in the absorption and disposition of drugs, OAT1
T2 sequence (Q4U2R8 whole entry): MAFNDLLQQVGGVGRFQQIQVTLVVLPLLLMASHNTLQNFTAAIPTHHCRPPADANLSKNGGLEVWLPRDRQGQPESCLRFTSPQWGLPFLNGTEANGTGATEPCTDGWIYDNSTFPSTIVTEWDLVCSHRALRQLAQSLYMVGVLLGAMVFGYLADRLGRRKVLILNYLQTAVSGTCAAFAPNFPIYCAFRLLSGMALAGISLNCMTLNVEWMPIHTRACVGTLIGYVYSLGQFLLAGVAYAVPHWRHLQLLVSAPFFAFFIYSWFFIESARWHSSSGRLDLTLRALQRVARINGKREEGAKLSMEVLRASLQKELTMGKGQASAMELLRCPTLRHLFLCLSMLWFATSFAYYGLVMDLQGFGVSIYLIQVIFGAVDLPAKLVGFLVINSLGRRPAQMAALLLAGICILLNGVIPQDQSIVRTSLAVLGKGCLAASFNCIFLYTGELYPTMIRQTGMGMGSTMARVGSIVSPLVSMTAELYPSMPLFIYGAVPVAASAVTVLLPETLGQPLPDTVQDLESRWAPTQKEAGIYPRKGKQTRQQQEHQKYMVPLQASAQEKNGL

[3] = molecular target: T3, Organic anion transporter 3 (Homo sapiens, UniProt Q8TCC7); test: Substrates of transporters of clinical importance in the absorption and disposition of drugs, OAT3
T3 sequence (Q8TCC7 whole entry): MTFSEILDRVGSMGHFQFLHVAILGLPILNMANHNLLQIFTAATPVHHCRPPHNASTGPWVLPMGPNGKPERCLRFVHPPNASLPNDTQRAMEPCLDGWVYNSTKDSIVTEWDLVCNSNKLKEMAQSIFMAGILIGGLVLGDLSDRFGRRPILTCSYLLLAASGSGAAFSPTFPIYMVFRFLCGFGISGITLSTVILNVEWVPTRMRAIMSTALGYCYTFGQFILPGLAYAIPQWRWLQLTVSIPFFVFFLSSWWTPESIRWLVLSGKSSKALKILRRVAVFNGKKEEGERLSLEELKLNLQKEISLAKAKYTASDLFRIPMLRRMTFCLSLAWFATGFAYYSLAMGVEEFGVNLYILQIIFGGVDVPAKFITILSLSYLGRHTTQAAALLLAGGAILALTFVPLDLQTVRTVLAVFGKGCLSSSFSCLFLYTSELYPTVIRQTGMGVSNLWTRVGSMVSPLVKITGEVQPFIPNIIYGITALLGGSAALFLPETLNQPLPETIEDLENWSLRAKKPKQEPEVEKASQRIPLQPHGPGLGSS

[4] = molecular target: T4, Solute carrier organic anion transporter family member 2B1 (Homo sapiens, UniProt O94956); test: Substrates of transporters of clinical importance in the absorption and disposition of drugs, OATP2B1
T4 sequence (O94956 whole entry): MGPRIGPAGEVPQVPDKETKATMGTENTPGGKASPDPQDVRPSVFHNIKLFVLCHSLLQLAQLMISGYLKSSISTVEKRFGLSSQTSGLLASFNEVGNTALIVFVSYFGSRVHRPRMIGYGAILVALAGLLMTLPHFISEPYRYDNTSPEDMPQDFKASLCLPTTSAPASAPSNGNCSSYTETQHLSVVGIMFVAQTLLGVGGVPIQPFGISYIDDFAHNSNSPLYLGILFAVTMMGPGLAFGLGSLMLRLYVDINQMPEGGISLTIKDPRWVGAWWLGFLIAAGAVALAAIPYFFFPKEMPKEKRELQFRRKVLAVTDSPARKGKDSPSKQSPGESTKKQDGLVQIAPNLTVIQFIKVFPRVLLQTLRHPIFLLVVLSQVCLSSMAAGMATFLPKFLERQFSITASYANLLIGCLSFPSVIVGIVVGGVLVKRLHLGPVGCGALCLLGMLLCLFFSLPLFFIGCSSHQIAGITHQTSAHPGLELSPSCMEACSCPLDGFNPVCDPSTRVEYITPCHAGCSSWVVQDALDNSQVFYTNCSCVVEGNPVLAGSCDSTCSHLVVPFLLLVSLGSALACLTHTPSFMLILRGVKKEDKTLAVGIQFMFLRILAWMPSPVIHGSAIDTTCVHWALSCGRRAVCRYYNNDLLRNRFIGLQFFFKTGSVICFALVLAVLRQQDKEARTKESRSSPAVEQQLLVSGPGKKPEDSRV

For Nc1ncnc2c1ncn2CCOCP(=O)(O)O [ADEFOVIR], the Activity [1] was “transporter substrate” and the Activity [2] was “transporter substrate”.

CCCCNc1cc(C(=O)O)cc(S(N)(=O)=O)c1Oc1ccccc1 [BUMETANIDE] was tested, and the Activity [3] was “transporter substrate”.

For N[C@@H](C(=O)N[C@@H]1C(=O)N2C(C(=O)O)=C(Cl)CS[C@H]12)c1ccccc1 [CEFACLOR ANHYDROUS], the Activity [3] was “transporter substrate”.

CO/N=C(\C(=O)N[C@@H]1C(=O)N2C(C(=O)O)=CCS[C@H]12)c1csc(N)n1 [CEFTIZOXIME] was tested, and the Activity [3] was “transporter substrate”.

For Nc1ccn(C[C@@H](CO)OCP(=O)(O)O)c(=O)n1.O.O [CIDOFOVIR], the Activity [2] was “transporter substrate”.

In the case of NS(=O)(=O)c1cc(C(=O)O)c(NCc2ccco2)cc1Cl [FUROSEMIDE], the Activity [3] is reported as “transporter substrate” and the Activity [1] is reported as “transporter substrate”.

For COc1ccc(Cl)cc1C(=O)NCCc1ccc(S(=O)(=O)NC(=O)NC2CCCCC2)cc1 [GLYBURIDE], the Activity [4] was “transporter substrate”.

C[C@H](Cn1cnc2c(N)ncnc21)OCP(=O)(O)O [TENOFOVIR ANHYDROUS] was tested, and the Activity [1] was “transporter substrate” and the Activity [2] was “transporter substrate”.

With Nc1ccn([C@H]2CC[C@@H](CO)O2)c(=O)n1 [ZALCITABINE] the Activity [2] was “transporter substrate”.

With Cc1cn([C@H]2C[C@H](N=[N+]=[N-])[C@@H](CO)O2)c(=O)[nH]c1=O [ZIDOVUDINE] the Activity [2] was “transporter substrate”.

From ChEMBL document CHEMBL1743141, “Membrane transporters in drug development” (Nat Rev Drug Discov, 2010)
